Test results from ChEMBL document CHEMBL5647694, “Novel orally bioavailable EZH1/2 dual inhibitors with greater antitumor efficacy than an EZH2 selective inhibitor” (Cancer Sci, 2017).

Experiments:
[1] = target: Histone-lysine N-methyltransferase SETD1B (Homo sapiens, UniProt Q9UPS6); assay: Inhibition of human SET1B using Core Histone and [3H]SAM as substrate incubated for 30 mins to 1 hr by HotSpot kinase assay
[2] = target: Histone-lysine N-methyltransferase 2C (Homo sapiens, UniProt Q8NEZ4); assay: Inhibition of human MLL3 using Core Histone and [3H]SAM as substrate incubated for 30 mins to 1 hr by HotSpot kinase assay
ATN-1 = assay: Antitumor activity against human ATN-1 cells assessed as cell growth inhibition treated for 10 to 15 days; format: functional; details: time 10-15 day
ACHN = assay: Antitumor activity against human ACHN cells assessed as cell growth inhibition treated for 10 to 15 days; format: functional; details: time 10-15 day
Panc1005 = assay: Antitumor activity against human Panc1005 cells assessed as cell growth inhibition treated for 10 to 15 days; format: functional; details: time 10-15 day
LNCaP-Clone-FGC = assay: Antitumor activity against human LNCaP clone FGC cells assessed as cell growth inhibition treated for 10 to 15 days; format: functional; details: time 10-15 day
NAMALVA = assay: Antitumor activity against human NAMALVA cells assessed as cell growth inhibition treated for 10 to 15 days; format: functional; details: time 10-15 day
HCC1599 = assay: Antitumor activity against human HCC1599 cells assessed as cell growth inhibition treated for 10 to 15 days; format: functional; details: time 10-15 day
UACC-893 = assay: Antitumor activity against human UACC-893 cells assessed as cell growth inhibition treated for 10 to 15 days; format: functional; details: time 10-15 day
SUP-B15 = assay: Antitumor activity against human SUP-B15 cells assessed as cell growth inhibition treated for 10 to 15 days; format: functional; details: time 10-15 day
[3] = target: Histone-lysine N-methyltransferase EHMT2 (Homo sapiens, UniProt Q96KQ7); assay: Inhibition of human G9a using Histone H3 (1-21 residues) and [3H]SAM as substrate incubated for 30 mins to 1 hr by HotSpot kinase assay
[4] = target: Protein arginine N-methyltransferase 1 (Homo sapiens, UniProt Q99873); assay: Inhibition of human PRMT1 using Histone H4 and [3H]SAM as substrate incubated for 30 mins to 1 hr by HotSpot kinase assay
A2780 = assay: Antitumor activity against human A2780 cells assessed as cell growth inhibition treated for 10 to 15 days; format: functional; details: time 10-15 day
Hs 766 = assay: Antitumor activity against human Hs766T cells assessed as cell growth inhibition treated for 10 to 15 days; format: functional; details: time 10-15 day
HT = assay: Antitumor activity against human HT cells assessed as cell growth inhibition treated for 10 to 15 days; format: functional; details: time 10-15 day
KG-1 = assay: Antitumor activity against human KG-1 cells assessed as cell growth inhibition treated for 10 to 15 days; format: functional; details: time 10-15 day
SNU-5 = assay: Antitumor activity against human SNU-5 cells assessed as cell growth inhibition treated for 10 to 15 days; format: functional; details: time 10-15 day
UACC-812 = assay: Antitumor activity against human UACC-812 cells assessed as cell growth inhibition treated for 10 to 15 days; format: functional; details: time 10-15 day
U-937 = assay: Antitumor activity against human U-937 cells assessed as cell growth inhibition treated for 10 to 15 days; format: functional; details: time 10-15 day
[5] = Antitumor activity against human HCC1500 cells assessed as cell growth inhibition treated for 10 to 15 days; format: functional; details: time 10-15 day
A704 = assay: Antitumor activity against human A704 cells assessed as cell growth inhibition treated for 10 to 15 days; format: functional; details: time 10-15 day
[6] = target: Histone-lysine N-methyltransferase PRDM9 (Homo sapiens, UniProt Q9NQV7); assay: Inhibition of human PRDM9 using Histone H3 and [3H]SAM as substrate incubated for 30 mins to 1 hr by HotSpot kinase assay
Kasumi 1 = assay: Antitumor activity against human Kasumi 1 cells assessed as cell growth inhibition treated for 10 to 15 days; format: functional; details: time 10-15 day
MKN-7 = assay: Antitumor activity against human MKN-7 cells assessed as cell growth inhibition treated for 10 to 15 days; format: functional; details: time 10-15 day
KURAMOCHI = assay: Antitumor activity against human KURAMOCHI cells assessed as cell growth inhibition treated for 10 to 15 days; format: functional; details: time 10-15 day
OCI-LY19 = assay: Antitumor activity against human OCILY19 cells assessed as cell growth inhibition treated for 10 to 15 days; format: functional; details: time 10-15 day
MDA-MB-436 = assay: Antitumor activity against human MDA-MB-436 cells assessed as cell growth inhibition treated for 10 to 15 days; format: functional; details: time 10-15 day
[7] = Antitumor activity against human COV504 cells assessed as cell growth inhibition treated for 10 to 15 days; format: functional; details: time 10-15 day
HPAC = assay: Antitumor activity against human HPAC cells assessed as cell growth inhibition treated for 10 to 15 days; format: functional; details: time 10-15 day
[8] = target: Histone-lysine N-methyltransferase 2D (Homo sapiens, UniProt O14686); assay: Inhibition of human MLL2 using Core Histone and [3H]SAM as substrate incubated for 30 mins to 1 hr by HotSpot kinase assay
H9 = assay: Antitumor activity against human H9 cells assessed as cell growth inhibition treated for 10 to 15 days; format: functional; details: time 10-15 day
[9] = target: RAC-beta serine/threonine-protein kinase (Homo sapiens) (UniProt P31751); assay: Inhibition of N-terminal GST-tagged human AKT2 catalytic domain (120 to 481 residues) co-expressed with His-tagged PDK1 (1 to 556 residues) in baculovirus-infected Sf21 cells using Crosstide as substrate at 1 uM in presence of ATP by Mobility shift assay
[10] = Toxicity in Crl:CD Sprague-Dawley rat assessed as red blood cell count in blood at 100 mg/kg, po administered daily for 14 days (reference value: 6.71+/-0.386 10^6/uL); format: organism-based; details: in vivo, 336 h, time 14 day
[11] = Cmax in BALB/c mouse at 6.3 mg/kg administered as single dose; format: ADME, organism-based; details: in vivo, route po
[12] = Toxicity in Crl:CD Sprague-Dawley rat assessed as MCHC level in blood at 100 mg/kg, po administered daily for 14 days (reference value: 32.7 +/-0.05%); format: organism-based; details: in vivo, 336 h, time 14 day
[13] = Toxicity in Crl:CD Sprague-Dawley rat assessed as chloride level in blood at 100 mg/kg, po administered daily for 14 days (reference value: 104 +/-1.5 mEq/L); format: organism-based; details: in vivo, 336 h, time 14 day
[14] = Toxicity in Crl:CD Sprague-Dawley rat assessed as hypertrophy of zona fasciculata/reticularis cells in adrenal at 100 mg/kg, po administered daily for 14 days by hematoxylin and eosin staining based analysis; format: organism-based; details: in vivo, 336 h, time 14 day
KARPAS-422 = assay: Antitumor activity against human KARPAS-422 cells xenografted in CB17/Icr-Prkdcscid/CrlCrlj mouse assessed as inhibition of tumor growth administered orally BID for 14 days; format: functional, cell-based; details: dose 3.1-50 mg/kg, route po, time 14.0 day
[15] = Toxicity in Crl:CD Sprague-Dawley rat assessed as monocyte count in blood at 100 mg/kg, po administered daily for 14 days (reference value: 0.203+/-0.09 10^3/uL); format: organism-based; details: in vivo, 336 h, time 14 day
[16] = Toxicity in Crl:CD Sprague-Dawley rat assessed as calcium level in blood at 100 mg/kg, po administered daily for 14 days (reference value: 10.1 +/-0.096 mg/dL); format: organism-based; details: in vivo, 336 h, time 14 day
[17] = AUC (0 to 24 hrs) in BALB/c mouse at 6.3 mg/kg administered as single dose; format: ADME, organism-based; details: in vivo, route po

RAC-beta serine/threonine-protein kinase (Homo sapiens), sequence (P31751 whole entry, the tested form may be a part): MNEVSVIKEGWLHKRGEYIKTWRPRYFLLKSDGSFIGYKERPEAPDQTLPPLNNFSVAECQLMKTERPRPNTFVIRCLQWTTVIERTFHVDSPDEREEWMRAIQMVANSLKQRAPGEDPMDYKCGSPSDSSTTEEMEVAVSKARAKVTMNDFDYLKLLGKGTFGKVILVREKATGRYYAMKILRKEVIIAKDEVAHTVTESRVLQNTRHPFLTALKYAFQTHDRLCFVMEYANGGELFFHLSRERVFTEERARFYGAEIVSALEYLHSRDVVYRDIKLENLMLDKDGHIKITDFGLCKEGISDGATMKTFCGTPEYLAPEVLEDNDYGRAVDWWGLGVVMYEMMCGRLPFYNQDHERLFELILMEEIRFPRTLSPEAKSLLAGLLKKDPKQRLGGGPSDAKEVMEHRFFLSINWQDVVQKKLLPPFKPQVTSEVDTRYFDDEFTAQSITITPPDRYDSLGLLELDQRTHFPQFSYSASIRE
Protein arginine N-methyltransferase 1, sequence (Q99873 whole entry): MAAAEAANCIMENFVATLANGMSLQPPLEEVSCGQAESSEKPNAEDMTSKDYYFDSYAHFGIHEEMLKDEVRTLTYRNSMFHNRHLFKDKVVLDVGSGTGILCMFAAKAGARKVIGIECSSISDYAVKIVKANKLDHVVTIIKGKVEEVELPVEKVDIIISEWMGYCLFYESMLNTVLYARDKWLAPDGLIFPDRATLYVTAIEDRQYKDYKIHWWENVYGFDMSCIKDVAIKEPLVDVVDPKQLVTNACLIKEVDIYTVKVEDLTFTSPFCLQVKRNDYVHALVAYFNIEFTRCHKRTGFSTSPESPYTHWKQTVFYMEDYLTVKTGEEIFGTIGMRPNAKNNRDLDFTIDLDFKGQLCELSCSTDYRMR
Histone-lysine N-methyltransferase SETD1B, sequence (Q9UPS6 whole entry): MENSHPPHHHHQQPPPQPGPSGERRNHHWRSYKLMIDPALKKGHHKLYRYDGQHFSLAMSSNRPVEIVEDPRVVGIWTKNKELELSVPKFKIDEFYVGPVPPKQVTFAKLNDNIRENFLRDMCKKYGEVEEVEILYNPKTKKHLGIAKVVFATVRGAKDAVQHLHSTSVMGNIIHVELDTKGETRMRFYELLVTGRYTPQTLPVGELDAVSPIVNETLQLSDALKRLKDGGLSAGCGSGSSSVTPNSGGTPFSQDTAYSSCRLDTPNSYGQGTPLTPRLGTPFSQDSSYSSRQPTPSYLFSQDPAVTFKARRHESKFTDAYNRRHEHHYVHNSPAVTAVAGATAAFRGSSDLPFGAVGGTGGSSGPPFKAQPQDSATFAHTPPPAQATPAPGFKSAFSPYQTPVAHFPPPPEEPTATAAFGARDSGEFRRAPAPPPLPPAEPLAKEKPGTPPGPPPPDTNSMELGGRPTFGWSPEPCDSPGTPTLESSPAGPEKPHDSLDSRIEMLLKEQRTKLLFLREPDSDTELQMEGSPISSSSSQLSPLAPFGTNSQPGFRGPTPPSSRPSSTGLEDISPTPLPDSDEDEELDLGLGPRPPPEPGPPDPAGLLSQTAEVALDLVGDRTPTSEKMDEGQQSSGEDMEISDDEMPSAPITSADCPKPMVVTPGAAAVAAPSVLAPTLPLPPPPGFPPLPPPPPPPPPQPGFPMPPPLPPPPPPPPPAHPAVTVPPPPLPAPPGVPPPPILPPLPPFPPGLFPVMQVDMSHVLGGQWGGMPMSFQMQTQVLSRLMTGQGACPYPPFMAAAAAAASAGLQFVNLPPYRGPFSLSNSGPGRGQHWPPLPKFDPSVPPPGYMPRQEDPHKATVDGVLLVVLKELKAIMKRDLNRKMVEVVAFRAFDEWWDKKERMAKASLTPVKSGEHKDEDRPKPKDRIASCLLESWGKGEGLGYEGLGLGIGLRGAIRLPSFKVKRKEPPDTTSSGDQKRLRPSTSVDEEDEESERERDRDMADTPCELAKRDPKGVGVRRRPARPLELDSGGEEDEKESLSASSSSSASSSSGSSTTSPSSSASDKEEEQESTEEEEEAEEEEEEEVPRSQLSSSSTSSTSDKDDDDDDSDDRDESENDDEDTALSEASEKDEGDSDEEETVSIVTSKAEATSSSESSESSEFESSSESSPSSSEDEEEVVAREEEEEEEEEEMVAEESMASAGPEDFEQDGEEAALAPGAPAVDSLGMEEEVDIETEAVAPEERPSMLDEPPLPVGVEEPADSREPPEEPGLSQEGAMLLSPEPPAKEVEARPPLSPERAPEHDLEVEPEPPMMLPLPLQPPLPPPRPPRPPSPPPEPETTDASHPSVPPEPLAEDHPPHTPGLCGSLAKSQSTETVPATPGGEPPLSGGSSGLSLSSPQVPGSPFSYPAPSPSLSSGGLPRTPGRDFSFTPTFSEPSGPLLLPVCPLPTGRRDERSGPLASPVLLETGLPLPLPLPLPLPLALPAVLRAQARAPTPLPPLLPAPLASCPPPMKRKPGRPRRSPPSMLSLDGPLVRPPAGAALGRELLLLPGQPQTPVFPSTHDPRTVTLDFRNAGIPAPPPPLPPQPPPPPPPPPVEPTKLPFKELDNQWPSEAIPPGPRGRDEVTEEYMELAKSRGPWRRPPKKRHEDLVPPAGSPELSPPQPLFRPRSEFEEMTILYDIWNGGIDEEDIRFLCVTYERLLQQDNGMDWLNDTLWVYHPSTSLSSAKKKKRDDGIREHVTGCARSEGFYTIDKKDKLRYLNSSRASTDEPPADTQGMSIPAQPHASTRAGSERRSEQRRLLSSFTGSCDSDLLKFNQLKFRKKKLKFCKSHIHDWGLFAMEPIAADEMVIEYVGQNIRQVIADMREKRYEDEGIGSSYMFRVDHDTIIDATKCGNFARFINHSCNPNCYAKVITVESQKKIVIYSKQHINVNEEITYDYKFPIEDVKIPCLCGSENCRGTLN
Histone-lysine N-methyltransferase EHMT2, sequence (Q96KQ7 whole entry, the tested form may be a part): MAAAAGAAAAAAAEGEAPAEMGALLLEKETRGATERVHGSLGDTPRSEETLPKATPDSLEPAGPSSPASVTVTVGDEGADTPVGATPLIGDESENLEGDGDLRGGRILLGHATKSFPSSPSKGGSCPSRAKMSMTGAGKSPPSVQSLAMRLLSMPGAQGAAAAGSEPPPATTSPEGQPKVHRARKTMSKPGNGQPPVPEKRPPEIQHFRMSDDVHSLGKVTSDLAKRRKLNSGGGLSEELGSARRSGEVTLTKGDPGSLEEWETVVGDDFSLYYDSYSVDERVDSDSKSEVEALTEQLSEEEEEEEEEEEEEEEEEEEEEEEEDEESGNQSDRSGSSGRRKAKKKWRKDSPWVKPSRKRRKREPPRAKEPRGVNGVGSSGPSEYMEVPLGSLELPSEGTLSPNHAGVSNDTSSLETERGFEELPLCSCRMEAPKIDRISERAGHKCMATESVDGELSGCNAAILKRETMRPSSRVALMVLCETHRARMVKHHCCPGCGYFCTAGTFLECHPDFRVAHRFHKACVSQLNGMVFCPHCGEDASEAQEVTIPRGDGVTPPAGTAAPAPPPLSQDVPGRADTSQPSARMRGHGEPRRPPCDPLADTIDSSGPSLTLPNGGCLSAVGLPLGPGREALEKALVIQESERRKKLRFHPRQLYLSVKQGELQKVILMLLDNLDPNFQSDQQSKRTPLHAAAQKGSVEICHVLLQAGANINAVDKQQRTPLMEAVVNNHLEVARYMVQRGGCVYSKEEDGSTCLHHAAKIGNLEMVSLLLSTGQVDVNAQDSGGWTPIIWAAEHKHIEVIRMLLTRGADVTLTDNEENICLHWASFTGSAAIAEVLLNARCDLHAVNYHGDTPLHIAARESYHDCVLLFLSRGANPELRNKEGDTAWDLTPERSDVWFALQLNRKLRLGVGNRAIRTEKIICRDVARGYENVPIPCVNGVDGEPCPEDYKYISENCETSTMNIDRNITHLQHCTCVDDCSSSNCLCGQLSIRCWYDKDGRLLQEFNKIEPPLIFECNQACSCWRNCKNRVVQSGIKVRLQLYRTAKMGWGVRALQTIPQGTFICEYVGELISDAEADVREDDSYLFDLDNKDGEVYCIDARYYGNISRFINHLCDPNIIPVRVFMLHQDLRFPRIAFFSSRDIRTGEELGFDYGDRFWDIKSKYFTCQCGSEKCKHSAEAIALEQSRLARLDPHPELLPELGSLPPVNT
Histone-lysine N-methyltransferase PRDM9, sequence (Q9NQV7 whole entry): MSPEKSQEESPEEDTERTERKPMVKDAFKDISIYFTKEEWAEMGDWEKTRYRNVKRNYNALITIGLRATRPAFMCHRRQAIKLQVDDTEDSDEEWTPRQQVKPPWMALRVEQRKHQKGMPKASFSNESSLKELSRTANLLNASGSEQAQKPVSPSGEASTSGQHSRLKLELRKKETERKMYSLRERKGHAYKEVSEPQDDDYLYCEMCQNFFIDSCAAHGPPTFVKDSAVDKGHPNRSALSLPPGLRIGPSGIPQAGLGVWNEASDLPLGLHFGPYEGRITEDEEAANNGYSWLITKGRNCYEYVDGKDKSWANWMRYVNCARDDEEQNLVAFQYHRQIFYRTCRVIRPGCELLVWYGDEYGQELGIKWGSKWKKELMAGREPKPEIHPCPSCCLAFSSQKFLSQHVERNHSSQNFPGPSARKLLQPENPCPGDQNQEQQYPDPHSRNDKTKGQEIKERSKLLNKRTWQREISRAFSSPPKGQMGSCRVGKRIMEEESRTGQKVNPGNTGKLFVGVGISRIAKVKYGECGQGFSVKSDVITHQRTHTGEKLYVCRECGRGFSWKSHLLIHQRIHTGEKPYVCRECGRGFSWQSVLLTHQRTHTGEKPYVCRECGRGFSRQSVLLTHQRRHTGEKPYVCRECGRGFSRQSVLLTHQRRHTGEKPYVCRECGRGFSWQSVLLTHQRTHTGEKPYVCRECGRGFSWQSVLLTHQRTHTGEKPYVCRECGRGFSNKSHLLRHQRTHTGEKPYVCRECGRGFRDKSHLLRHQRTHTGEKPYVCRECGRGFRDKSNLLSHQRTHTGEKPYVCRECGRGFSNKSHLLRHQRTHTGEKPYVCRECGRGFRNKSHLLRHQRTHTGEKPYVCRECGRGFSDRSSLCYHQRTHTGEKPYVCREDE

For Cc1cc(C)c(CNC(=O)c2cc(Cl)c3c(c2C)O[C@@](C)([C@H]2CC[C@H](N(C)C)CC2)O3)c(=O)[nH]1 [VALEMETOSTAT], the IC50 [1] was 100 µM, the IC50 [2] was 100 µM and the GI50 (ATN-1) was 0.0438 µM. For the same compound, the GI50 (ACHN) was over 1 µM, the GI50 (Panc1005) was over 1 µM and the GI50 (LNCaP-Clone-FGC) was 0.00553 µM. The GI50 (NAMALVA) was over 1 µM, the GI50 (HCC1599) was over 1 µM and the GI50 (UACC-893) was over 1 µM. It also gave a GI50 (SUP-B15) of 0.0243 µM, an IC50 [3] of 100 µM and an IC50 [4] of 100 µM. It also gave a GI50 (A2780) of 0.036 µM, a GI50 (Hs 766) of over 1 µM and a GI50 (HT) of 0.00174 µM. It also gave a GI50 (KG-1) of 0.7 µM, a GI50 (SNU-5) of 0.0524 µM and a GI50 (UACC-812) of over 1 µM. For the same compound, the GI50 (U-937) was over 1 µM, the GI50 [5] was 0.021 µM and the GI50 (A704) was over 1 µM. For the same compound, the IC50 [6] was 100 µM, the GI50 (Kasumi 1) was 0.07 µM and the GI50 (MKN-7) was over 1 µM. The GI50 (KURAMOCHI) was over 1 µM, the GI50 (OCI-LY19) was over 1 µM and the GI50 (MDA-MB-436) was over 1 µM. The GI50 [7] was 0.317 µM, the GI50 (HPAC) was over 1 µM and the IC50 [8] was over 100 µM. It also gave a GI50 (H9) of 0.00958 µM.
For Cc1cc(C)c(CNC(=O)c2cc(Br)c3c(c2C)O[C@@](C)([C@H]2CC[C@H](N(C)C)CC2)O3)c(=O)[nH]1, the inhibition [9] was -9.5%, the Activity [10] was 6.59 10^6 /uL and the Cmax [11] was 0.45 µM. The Activity [12] was 32.5%, the Activity [13] was 105 mEq/L and the Activity [14] was “Toxic”. For the same compound, the Activity (KARPAS-422) was “Dose-Dependent Effect”, the Activity [15] was 0.105 10^3 /uL and the Activity [16] was 9.88 mg/dL. The AUC(0-t) [17] was 1600 nM·h.
